The record followed here is patent publication US20040097555A1, “Concomitant drugs” (priority 2000, published 2004).

SMILES strings stand for the structures.

For one data set, the target named is T1, human p38 MAP kinase (Homo sapiens, UniProt Q16539).
T1 construct: FLAG (N); made in house; host or cells: Sf-21 insect cells, baculovirus (BAC-HP38 co-infected with BAC-caMKK3)
Description: Measurement of the enzyme inhibitory activity of active form p38 MAP kinase (32P uptake into Myelin Basic Protein), Reference Example C1. Type of data set: biochemical. The conditions noted are these: concentration inhibiting uptake of 32P into acid insoluble fraction (Myelin Basic Protein) by 50%, Table 45. Here is the method: (1) Cloning of Human p38 MAP Kinase Gene and Preparation of Recombinant Baculovirus
Cloning of human p38 MAP kinase gene was performed by a PCR method using a primer set P38-U: 5′-[…]-3′ [SEQ ID NO:1] and PAG-L: 5′-[…]-3′ [SEQ ID NO:2] made by the use of kidney cDNA (Toyobo, QUICK-Clone cDNA) as a template and referring to the base sequence of p38 MAP kinase gene reported by Han et al. (Science 265 (5173), 808-811 (1994)).
(2) Cloning of Human MKK3 Gene and Preparation of Recombinant Baculovirus
(3) Preparation of Active Form p38 MAP Kinase
The Sf-21 cells were seeded on 100 mL Sf-900II SFM medium (GIBCOBRL) to 1×10^6 cells/mL and cultured at 27° C. for 24 hours. After each 0.2 mL of the virusstock BAC-HP38 and BAC-caMKK3 of recombinant baculovirus were added, the culturing was further performed for 48 hours. After the cells were separated from the culturing solution by centrifugation (3000 rpm, 10 min), the cells were washed twice with PBS. After the cells were suspended in 10 ml Lysis buffer (25 mM HEPES (pH 7.5), 1% Triton X, […], 1 mM EDTA, 1 mM DTT, 25 mM β-glycerophosphate, […], 1 mM APMSF, 1 mM Sodium orthovanadate), the cells were lysed by treating twice in a homogenizer (POLYTRON) at 20000 rpm for 2 minutes. From the supernatant obtained by centrifugation (40000 rpm, 45 minutes), active form p38 MAP kinase was purified using Anti-FLAG M2 Affinity Gel (Eastman Chemical).
(4) Measurement of the Enzyme Inhibitory Activity
2.5 μL of a test compound dissolved in DMSO was added to 37.5 μL reaction solution (25 mM HEPES (pH 7.5), 10 mM Magnesium Acetate) containing 260 ng active form p38 MAP kinase and 1 μg Myelin Basic Protein, which was maintained at 30° C. for 5 minutes. The reaction was initiated by adding […] ATP solution (2.5 μM ATP, 0.1 μCi [g-^32P]ATP). After the reaction was performed at 30° C. for 60 minutes, the reaction was stopped by adding 50 μL 20% TCA solution. After the reaction solution was allowed to stand at 0° C. for 20 minutes, an acid insoluble fraction was transferred to GF/C filter (Packard Japan) using Cell Harvester (Packard Japan) and washed with 250 mM H3PO4. After drying at 45° C. for 60 minutes, 40 μL Microscint 0 (Packard Japan) was added and the radioactivity was measured with a TopCount (Packard Japan). The concentration (IC50 value) of the test compound necessary for inhibiting uptake of ^32P into an acid insoluble fraction by 50% was calculated with PRISM 2.01 (Graphpad Software).

Data set [1] concerns TNF-α production in THP-1 cells. Description: Measurement of inhibiting activity of TNF-α production in LPS-stimulated THP-1 cells (ELISA), Reference Example F3. The data set is classed as cell-based. The conditions noted are these: Homo sapiens, LPS 5 μg/mL, 4 hours, read-out: IC50 (concentration necessary for inhibiting TNF-α production by 50%). The method, then:
(§1) Measurement of inhibiting activity of TNF-α production
After THP-1 cells which had been cultured in PRMI 1640 medium (manufactured by Life Technologies, Inc.) containing 1% non-activated bovine fetal serum (manufactured by Life Technologies, Inc., U.S.A.) and 10 mM HEPES (pH 7.5) seeded on a 96-well plate to 1×10^5 cells/well, 1 μL test compound dissolved in DMSO was added to there. After incubation at 37° C. for 1 hour in a CO2 incubator, LPS (Wako Pure Chemicals) was added to the final concentration 5 μg/mL. After cultured at 37° C. for 4 hours in a CO2 incubator, the supernatant was obtained by centrifugation. The concentration of TNF-α in the supernatant was measured with ELISA (R&D System, Quantikine Kit). The concentration (IC50 value) necessary for inhibiting TNF-α production by 50% was calculated by PRIMS 2.01 (Graphpad Software).

The test system is the same in data set [2]. As to the kind of experiment: Measurement of inhibiting activity of TNF-α production in LPS-stimulated THP-1 cells (ELISA), Experimental Example C2. Type of data set: cell-based. The conditions noted are these: Homo sapiens, concentration inhibiting TNF-α production by 50%, LPS 5 μg/mL, 4 hour, Table 46. Here is the method:
as §1
After THP-1 cells which had been cultured on PRMI 1640 medium (manufactured by Life Technologies, Inc.) containing 1% inactivated bovine fetal serum (manufactured by Life Technologies, Inc., U.S.A.) and 10 mM HEPES (pH 7.5) seeded on a 96-well plate to 1×10^5 cells/well, 1 μL test compound dissolved in DMSO was added. After incubation at 37° C. for 1 hour in a CO2 incubator, LPS (Wako Pure Chemicals) was added to the final concentration 5 μg/mL. After cultured at 37° C. for 4 hour in a CO2 incubator, the supernatant was obtained by centrifugation. The concentration of TNF-α in the supernatant was measured by ELISA (R&D Systems, Quantikine Kit). The concentration (IC50 value) of the test compound necessary for inhibiting TNF-α production by 50% was calculated using PRIMS 2.01 (Graphpad Software).

T1 sequence (Q16539 whole entry): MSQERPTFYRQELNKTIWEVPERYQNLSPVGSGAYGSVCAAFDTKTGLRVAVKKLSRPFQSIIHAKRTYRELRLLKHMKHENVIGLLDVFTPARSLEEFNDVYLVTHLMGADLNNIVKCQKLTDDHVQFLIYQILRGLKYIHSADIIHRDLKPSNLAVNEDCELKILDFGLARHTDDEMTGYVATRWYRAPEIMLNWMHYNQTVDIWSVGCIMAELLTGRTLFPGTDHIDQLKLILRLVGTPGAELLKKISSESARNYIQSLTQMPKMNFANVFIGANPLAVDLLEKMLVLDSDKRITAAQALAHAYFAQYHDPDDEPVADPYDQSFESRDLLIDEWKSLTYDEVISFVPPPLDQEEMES

Take `CNc1nc(-c2ccc(Cl)cc2)c(-c2ccncc2)s1` [13-70, N-methyl [4-(4-chlorophenyl)-5-(4-pyridyl)-1,3-thiazol-2-yl]amine]: the IC50 at human p38 MAP kinase came to 26 nM.

The molecule `COc1ccc(-c2nc(N)sc2-c2ccncc2)cc1` [13-14, [4-(4-methoxyphenyl)-5-(4-pyridyl)-1,3-thiazol-2-yl]amine] displayed an IC50 against human p38 MAP kinase of 86 nM.

Regarding `COc1ccc(-c2nc(N)sc2-c2cccnc2)cc1` [Reference Example A 8, [4-(4-methoxyphenyl)-5-(3-pyridyl)-1,3-thiazol-2-yl]amine], the melting point lay within 265 to 266 °C.

Turning to `Cc1cc(C)cc(-c2nc(N)sc2-c2ccnc(NC(=O)c3ccccc3)c2)c1` [compound 5], the IC50 in data set [1] amounted to 20 nM.

Consider `Nc1nc(-c2ccccc2)c(-c2ccncc2)s1` [13-15, [4-phenyl-5-(4-pyridyl)-1,3-thiazol-2-yl]amine], for which the IC50 on human p38 MAP kinase worked out at 81 nM.

In the case of `CNc1nc(-c2ccc(OC)cc2)c(-c2cccnc2)s1` [Reference Example A 9, N-methyl [4-(4-methoxyphenyl)-5-(3-pyridyl)-1,3-thiazol-2-yl]amine], the melting point was in the range of 158 to 159 °C.

`Cc1cccc(-c2nc(-c3ccc(S(C)(=O)=O)cc3)sc2-c2ccnc(S(=O)(=O)c3ccccc3)c2)c1` [Reference Example D 28, 4-(3-methylphenyl)-2-(4-methylsulfonylphenyl)-5-(2-phenylsulfonyl-4-pyridyl)-1,3-thiazole]: the melting point was in the range of 90 to 91 °C.

With `CNc1nc(-c2ccc(OC)cc2)c(-c2ccncc2)s1` [13-16, N-methyl [4-(4-methoxyphenyl)-5-(4-pyridyl)-1,3-thiazol-2-yl]amine], the IC50 against human p38 MAP kinase is 60 nM.

In turn, `COc1ccc(-c2nc(N)sc2-c2cccnc2)cc1.Cl` gave a melting point of 145 to 150 °C.

`Fc1ccc(-c2nc(-c3ccccc3)sc2-c2ccncc2)cc1` [44-1, 4-(4-fluorophenyl)-2-phenyl-5-(4-pyridyl)-1,3-thiazole]: the melting point fell in the range of 135 to 137 °C.

The molecule `Cc1cccc(-c2nc(N)sc2-c2ccncc2)c1` [23-60, [4-(3-methylphenyl)-5-(4-pyridyl)-1,3-thiazol-2-yl]amine] had an IC50 in data set [2] of 46 nM.

A word on the melting point: it is the temperature, or range, at which the solid turns liquid.
